The source of these data is patent US11932877B2, “Human fibrolamellar hepatocellular carcinomas (hFL-HCCs)” (priority 2015, dated 2024).

“Also recorded” adds a separate entry of the source.

In one data set the test system is hFL-HCC. In words: Treatment of the hFL-HCC patient from whom TU-2010 was derived. The class given is in vivo, human. As to conditions: for clinical response of the patient's tumor: one patient, metastatic hFL-HCC; for disease course under treatment / tolerability in the patient: Paclitaxel and thalidomide given together, chosen from sensitivity studies.
The test system of data set [1] is hFL-HCC cells of TU-2010. In words: Spheroid formation assay. The format is cell-based, human. Particulars: spheroids in serum-free Kubota's Medium, low attachment plates. The method, then:
For secondary spheroid formation assays, the 1st spheroids were collected, subsequently dissociated with NeuroCult Chemical Dissociation Kit ([…] Technologies). Cell suspension was centrifuged at 700 rpm 10 min and resuspended with KM. After 2 weeks, the number of spheroids (100 μm>) were counted.

Data set [2] has as its system hFL-HCC cells of TU-2010. In words: Cell proliferation assay (WST-1) on monolayer cultures of hFL-HCC cells. The class given is cell-based, human. The method, then: For cell proliferation assays, 3×10^4 hFL-HCC cells of TU-2010 were depleted of host mesenchymal cells by magnetic sorting of xenotransplantable tumor cell suspension and then were seeded into each well of a 96-well plate and cultured overnight with Kubota's Medium+5% FBS. […] Cell proliferation was evaluated using the Cell Proliferation Reagent WST-1 (Roche Applied Science, Mannheim, Germany). After incubation at 37° C. for 2 hours, the absorbance at 450 nm was measured.
For orientation: Tetrazolium dyes change colour on reduction, which living cells bring about.

In the case of `O=c1[nH]cc(F)c(=O)[nH]1` [5-FU], the “clinical response of the patient's tumor” value in the data set with hFL-HCC is reported as “limited or no response”. For `CS(=O)(=O)c1ccc(C(=O)Nc2ccc(Cl)c(-c3ccccn3)c2)c(Cl)c1` [GDC-0449, Vismodegib], the “suppression of hFL-HCC survival and growth in spheroid cultures compared with monolayer cultures” value (“suppression … compared with monolayer cultures” below) in the data set with hFL-HCC cells of TU-2010 [1] is “even more sensitive to inhibition; also recorded: far more effective”. In addition, the “suppression of survival and proliferation (growth) of hFL-HCC cells” value with hFL-HCC cells of TU-2010 [2] (4 μM and especially 20 μM, drug added for 3 days) is “strongly inhibited; also recorded: suppress survival and proliferation”.

On to `CC(=O)O[C@H]1C(=O)[C@@]2(C)[C@H]([C@H](OC(=O)c3ccccc3)[C@]3(O)C[C@H](OC(=O)[C@H](O)[C@@H](NC(=O)c4ccccc4)c4ccccc4)C(C)=C1C3(C)C)[C@]1(OC(C)=O)CO[C@@H]1C[C@@H]2O` [Paclitaxel], for which, in the data set with hFL-HCC, the “disease course under treatment” value is on record as “continued disease progression” and the “tolerability in the patient” value is “poorly tolerated”. As to `O=C(CCCCCCC(=O)Nc1ccccc1)NO` [SAHA, suberoylanilide hydroxamic acid], the “suppression … compared with monolayer cultures” value in the data set on hFL-HCC cells of TU-2010 [1] is given as “even more sensitive to inhibition”. In the case of `O=C(CCCCCCC(=O)NO)NO` [SBHA, suberic bis-hydroxamic acid], the “suppression … compared with monolayer cultures” value with hFL-HCC cells of TU-2010 [1] is given as “even more sensitive to inhibition”. In addition, the “inhibitory effect on hFL-HCC cell survival and growth” value with hFL-HCC cells of TU-2010 [2] (10 μM and 20 μM, drug added for 3 days) is given as “strong inhibitory effects”. In the data set on hFL-HCC cells of TU-2010 [2] (10 μM and 50 μM), the “inhibition of hFL-HCC cell growth” value is recorded as “strongly inhibited”.

On to `N.N.[Cl][Pt][Cl]` [cisplatinum], for which the “clinical response of the patient's tumor” value in the data set on hFL-HCC is “limited or no response”. Take `COc1cccc2c1C(=O)c1c(O)c3c(c(O)c1C2=O)C[C@@](O)(C(=O)CO)C[C@@H]3O[C@H]1C[C@H](N)[C@H](O)[C@H](C)O1` [doxorubicin]: the “clinical response of the patient's tumor” value in the data set with hFL-HCC is recorded as “limited or no response”. The same measure, in the same setting: as for `Nc1ccn([C@@H]2O[C@H](CO)[C@@H](O)C2(F)F)c(=O)n1` [gemcitabine], the entry is “limited or no response”; as for `CNC(=O)c1cc(Oc2ccc(NC(=O)Nc3ccc(Cl)c(C(F)(F)F)c3)cc2)ccn1` [sorafenib], “limited or no response”.

On to `O=C1CCC(N2C(=O)c3ccccc3C2=O)C(=O)N1` (centres unmarked) [thalidomide], for which, in the data set on hFL-HCC, the “disease course under treatment” value is reported as “continued disease progression”, the “tolerability in the patient” value is recorded as “poorly tolerated” and the “clinical response of the patient's tumor” value is “limited or no response”. Consider bevacizumab, for which the “clinical response of the patient's tumor” value in the data set with hFL-HCC is “limited or no response”.
